In assay [1] the test system is subject suffering from migraine headaches. As for the experimental part: The patch is applied to the subject's skin for 4 hours. […] The size of the patch can vary from ¼ inch by ¼ inch to 1 inch by 1 inch depending on the desired dosage to be administered.
A subject suffering from migraine headaches is administered a 2″×2″ patch with a gel concentration of 30 μg/ml over a 24 hour period.
A subject suffering from migraine headaches is administered a 2″×2″ patch with a gel concentration of 2.7 μg/ml over a 24 hour period.

Assay [2] relates to subject suffering from Alzheimer's disease. The conditions noted are these: Example 4: transdermal patch, 10 μg/mL, applied every day for two hours a day over a month. The method, then: A subject suffering from Alzheimer's disease is treated with a transdermal patch as described herein. […] The treatment regimen occurred over the course of a month.

The structures appear in SMILES notation.

The source of these data is patent US20230390215A1 (AgoneX Biopharmaceuticals, Inc., priority 2021, published 2023).

With `Cl.Cl.NCCc1c[nH]cn1` [histamine dihydrochloride], the migraine events result in assay [1] (Example 3: transdermal patch comprising 30 μg/mL, applied to skin for 4 hours during a migraine event) is reported as “treated or reduced”. In addition, the “migraine headaches (intensity and duration)” value in assay [1] (Example 6: 2″×2″ patch, gel concentration 2.7 μg/ml, 24 hour period) was “reduced in both intensity and duration”. Also, the “Alzheimer's disease symptoms” value in assay [2] is reported as “treated or reduced”.
